Data: ChEMBL document CHEMBL1129901, “Amide bond surrogates: A study in thiophenesulfonamide based endothelin receptor antagonists” (Bioorg Med Chem Lett, 1997)
pIC50: −log10 of the molar value.

How the values were obtained:
[1] = biological target: T1, Endothelin receptor type B (Homo sapiens, UniProt P24530); assay: Inhibition of human Endothelin B receptor using I-ET-1 as radioligand in a competitive radioligand assay
T1 sequence (P24530 whole entry): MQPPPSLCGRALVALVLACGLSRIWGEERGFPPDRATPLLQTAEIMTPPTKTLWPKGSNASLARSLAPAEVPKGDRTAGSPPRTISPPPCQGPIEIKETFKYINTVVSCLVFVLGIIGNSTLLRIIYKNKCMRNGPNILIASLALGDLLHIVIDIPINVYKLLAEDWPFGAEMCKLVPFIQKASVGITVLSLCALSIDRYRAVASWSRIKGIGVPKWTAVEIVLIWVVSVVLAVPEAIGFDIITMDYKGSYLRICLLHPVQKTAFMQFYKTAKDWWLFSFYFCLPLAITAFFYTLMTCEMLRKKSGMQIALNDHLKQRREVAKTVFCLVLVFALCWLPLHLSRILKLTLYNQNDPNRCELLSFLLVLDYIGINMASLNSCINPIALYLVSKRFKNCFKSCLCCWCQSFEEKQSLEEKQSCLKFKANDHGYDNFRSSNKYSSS

[2] = biological target: T2, Endothelin-1 receptor (Homo sapiens, UniProt P25101); assay: Inhibitory of human Endothelin A receptor by using I-ET-1 as radioligand in a competitive radioligand assay
T2 sequence (P25101 whole entry): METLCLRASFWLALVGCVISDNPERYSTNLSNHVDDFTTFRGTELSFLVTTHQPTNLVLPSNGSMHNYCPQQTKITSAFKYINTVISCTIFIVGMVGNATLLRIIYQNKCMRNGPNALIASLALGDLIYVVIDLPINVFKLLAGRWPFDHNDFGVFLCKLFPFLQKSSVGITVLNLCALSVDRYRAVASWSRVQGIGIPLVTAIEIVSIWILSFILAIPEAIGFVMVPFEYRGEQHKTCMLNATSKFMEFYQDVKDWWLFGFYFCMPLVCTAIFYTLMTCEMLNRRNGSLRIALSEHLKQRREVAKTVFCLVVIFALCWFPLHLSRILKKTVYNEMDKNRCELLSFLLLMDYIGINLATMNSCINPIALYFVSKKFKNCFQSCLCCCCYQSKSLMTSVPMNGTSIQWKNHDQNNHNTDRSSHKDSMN

[3] = biological target: T1, Endothelin receptor type B; assay: Tested for the inhibitory activity of cloned human ETB receptor by using I-ET-1 as radioligand in a competitive radioligand assay
[4] = biological target: T2, Endothelin-1 receptor; assay: Tested for the inhibitory activity of cloned human ETA receptor by using I-ET-1 as radioligand in a competitive radioligand assay

| pIC50 [1] | pIC50 [2] | pIC50 [3] | pIC50 [4] | SMILES |
| --- | --- | --- | --- | --- |
| 5.68 | 7.34 | – | – | Cc1cc(C)c(CCc2sccc2S(=O)(=O)Nc2onc(C)c2Br)c(C)c1 |
| 5.76 | 7.28 | – | – | Cc1cc(C)c(/C=C/c2ccsc2S(=O)(=O)Nc2onc(C)c2Br)c(C)c1 |
| 5.53 | 6.78 | – | – | Cc1ccc(/C=C/c2sccc2S(=O)(=O)Nc2onc(C)c2Br)c(C)c1 |
| – | 6.99 | – | – | Cc1ccc(CCc2ccsc2S(=O)(=O)Nc2onc(C)c2Br)c(C)c1 |
| 5.70 | 7.36 | – | – | Cc1cc(C)c(/C=C/c2sccc2S(=O)(=O)Nc2onc(C)c2Br)c(C)c1 |
| 5.86 | 7.24 | – | – | Cc1cc(C)c(CCc2ccsc2S(=O)(=O)Nc2onc(C)c2Br)c(C)c1 |
| 5.03 | 6.69 | – | – | Cc1noc(NS(=O)(=O)c2ccsc2CCc2ccc3c(c2)OCO3)c1Br |
| 4.93 | – | – | – | Cc1ccc(CCc2sccc2S(=O)(=O)Nc2onc(C)c2Br)cc1 |
| 5.00 | 6.66 | – | – | Cc1noc(NS(=O)(=O)c2sccc2/C=C/c2ccc3c(c2)OCO3)c1Br |
| 5.38 | 6.64 | – | – | Cc1ccc(/C=C/c2sccc2S(=O)(=O)Nc2onc(C)c2Br)cc1 |
| 5.38 | 7.14 | – | – | Cc1noc(NS(=O)(=O)c2sccc2/C=C/c2cc3c(cc2COC2CCOCC2)OCO3)c1Br |
| – | – | 5.27 | 7.14 | Cc1cc2c(cc1/C=C/c1ccsc1S(=O)(=O)Nc1onc(C)c1Br)OCO2 |
| 5.18 | – | – | – | Cc1ccc(/C=C/c2ccsc2S(=O)(=O)Nc2onc(C)c2Br)cc1 |
| 4.75 | 6.63 | – | – | Cc1noc(NS(=O)(=O)c2sccc2CCc2ccc3c(c2)OCO3)c1Br |
| – | 6.20 | – | – | Cc1cc(C)c(NC(=O)c2sccc2S(=O)(=O)Nc2onc(C)c2Cl)c(C)c1 |
| 4.90 | 7.04 | – | – | Cc1cc2c(cc1CCc1ccsc1S(=O)(=O)Nc1onc(C)c1Br)OCO2 |
| 5.49 | 7.10 | – | – | Cc1noc(NS(=O)(=O)c2sccc2/C=C/c2cc3c(cc2CO)OCO3)c1Br |
| 5.28 | 6.85 | – | – | Cc1noc(NS(=O)(=O)c2ccsc2/C=C/c2ccc3c(c2)OCO3)c1Br |
| 5.05 | 7.21 | – | – | Cc1cc2c(cc1CCc1sccc1S(=O)(=O)Nc1onc(C)c1Br)OCO2 |
| 5.48 | 7.09 | – | – | Cc1cc2c(cc1/C=C/c1sccc1S(=O)(=O)Nc1onc(C)c1Br)OCO2 |
| 5.53 | 6.74 | – | – | Cc1ccc(/C=C/c2ccsc2S(=O)(=O)Nc2onc(C)c2Br)c(C)c1 |
